Measured values taken from ChEMBL document CHEMBL5725580, “Macrocyclic pyridazinone derivatives” (2018).

Legend:
[1] = target: Interleukin-1 receptor-associated kinase 1 (Homo sapiens, UniProt P51617); test: IRAK1 Enzymatic Assay: IRAK1 is a human purified recombinant enzyme (His-TEV-IRAK1 (194-712)) In this assay, IRAK-1 hydrolyses ATP and autophosphorylates.Measurement of IRAK-1 inhibition is performed in streptavidin coated 384 well FlashPlate (PerkinElmer #SMP410A).His-TEV-IRAK-1 (15 ng/well), ATP (1 μM, [33P]ATP 0.25 μCi/well) and compounds in DMSO (range of concentrations from 20 μM to 1 nM) or controls (2% DMSO) are incubated for 3 hours at 30° C. in assay buffer: Hepes pH 7.0 50 mM, Fatty acid-free BSA 0.1%, Dithiothreitol DTT 2 mM, MgCl2 10 mM, EGTA 0.5 mM, Triton-X-100 0.01%. Kinase reaction is stopped by addition of EDTA. Supernatant is discarded, plates are washed three times with 150 mM NaCl and radioactivity is then measured in a Microbeta Trilux reader.
Sequence of Interleukin-1 receptor-associated kinase 1 (P51617 whole entry): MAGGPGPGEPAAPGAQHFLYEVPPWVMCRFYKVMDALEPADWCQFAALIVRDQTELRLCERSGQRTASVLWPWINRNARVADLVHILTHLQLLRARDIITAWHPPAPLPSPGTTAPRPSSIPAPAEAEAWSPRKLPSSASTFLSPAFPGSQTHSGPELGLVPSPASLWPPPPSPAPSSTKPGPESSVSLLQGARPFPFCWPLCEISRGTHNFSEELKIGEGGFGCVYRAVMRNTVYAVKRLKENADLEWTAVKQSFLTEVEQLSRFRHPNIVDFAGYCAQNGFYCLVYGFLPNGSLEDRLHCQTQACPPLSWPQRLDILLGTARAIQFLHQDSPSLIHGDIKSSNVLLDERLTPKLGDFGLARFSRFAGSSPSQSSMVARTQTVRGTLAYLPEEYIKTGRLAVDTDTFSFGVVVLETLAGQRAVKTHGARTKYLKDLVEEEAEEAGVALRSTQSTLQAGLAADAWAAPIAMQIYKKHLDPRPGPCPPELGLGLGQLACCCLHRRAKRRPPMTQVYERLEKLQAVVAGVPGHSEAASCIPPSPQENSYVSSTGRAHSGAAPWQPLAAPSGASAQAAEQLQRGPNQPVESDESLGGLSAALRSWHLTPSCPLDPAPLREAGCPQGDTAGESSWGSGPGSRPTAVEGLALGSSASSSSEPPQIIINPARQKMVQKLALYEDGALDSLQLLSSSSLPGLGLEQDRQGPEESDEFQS

[2] = target: T1, Interleukin-1 receptor-associated kinase 4 (Homo sapiens, UniProt Q9NWZ3); test: IRAK4 Enzymatic Assay: IRAK4 is a human purified recombinant enzyme ([…] IRAK4 hydrolyses ATP, autophosphorylates and phosphorylates a Serine/Threonine generic peptidic substrate (STK: 61ST1BLC from CisBio International based in Bagnols/Cèze FR).Measurement of IRAK-4 inhibition is performed in streptavidin coated 384 well FlashPlate (PerkinElmer #SMP410A). His-TEV-IRAK4 (20 ng/well), ATP (2 μM, [33P]ATP 0.25 μCi/well), STK1-biotin peptide (300 nM) and compounds in DMSO (range of concentrations from 20 μM to 1 nM) or controls (2% DMSO) are incubated for 3 hours at 30° C. in assay buffer: Hepes pH 7.0 50 mM, Fatty acid-free BSA 0.1%, Dithiothreitol DTT 2 mM, MgCl2 10 mM, EGTA 0.5 mM, Tween-20 0.01%, MnCl2 5 mM.Kinase reaction is stopped by addition of EDTA. Supernatant is discarded, plates are washed three times with 150 mM NaCl and radioactivity is then measured in a Microbeta Trilux reader.
T1 sequence (Q9NWZ3 whole entry): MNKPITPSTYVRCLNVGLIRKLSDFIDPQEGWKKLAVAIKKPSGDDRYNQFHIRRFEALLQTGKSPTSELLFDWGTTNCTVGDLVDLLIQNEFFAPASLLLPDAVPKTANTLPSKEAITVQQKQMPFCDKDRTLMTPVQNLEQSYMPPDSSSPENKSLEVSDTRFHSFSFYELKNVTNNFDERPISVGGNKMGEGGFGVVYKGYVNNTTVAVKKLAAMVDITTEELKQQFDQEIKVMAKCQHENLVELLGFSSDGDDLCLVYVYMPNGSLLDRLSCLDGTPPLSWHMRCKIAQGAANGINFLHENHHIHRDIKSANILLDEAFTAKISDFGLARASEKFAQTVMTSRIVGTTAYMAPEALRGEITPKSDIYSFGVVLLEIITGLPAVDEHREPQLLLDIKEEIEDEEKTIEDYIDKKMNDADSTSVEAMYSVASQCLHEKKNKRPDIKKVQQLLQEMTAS

IC50 [1]: < 100 nM
IC50 [2]: < 100 nM
SMILES: O=C1Nc2nc3ccccc3n2CCn2cc(cn2)-c2ccc(=O)n(n2)Cc2cccc1c2
